According to patent publication US20190016689A1, “NOVEL FLUORINATED QUINAZOLINE DERIVATIVES AS EGFR INHIBITORS” (TRILLIUM THERAPEUTICS INC., priority 2016, published 2019):
pIC50: −log10 of the molar value.

What was measured:
[1] = target: T1, EPHA6 (Homo sapiens, UniProt Q9UF33); test: Kinase assays, selectivity panel (qPCR); conditions: read-out: % Control @ 300 nM
T1 sequence (Q9UF33 23-1036): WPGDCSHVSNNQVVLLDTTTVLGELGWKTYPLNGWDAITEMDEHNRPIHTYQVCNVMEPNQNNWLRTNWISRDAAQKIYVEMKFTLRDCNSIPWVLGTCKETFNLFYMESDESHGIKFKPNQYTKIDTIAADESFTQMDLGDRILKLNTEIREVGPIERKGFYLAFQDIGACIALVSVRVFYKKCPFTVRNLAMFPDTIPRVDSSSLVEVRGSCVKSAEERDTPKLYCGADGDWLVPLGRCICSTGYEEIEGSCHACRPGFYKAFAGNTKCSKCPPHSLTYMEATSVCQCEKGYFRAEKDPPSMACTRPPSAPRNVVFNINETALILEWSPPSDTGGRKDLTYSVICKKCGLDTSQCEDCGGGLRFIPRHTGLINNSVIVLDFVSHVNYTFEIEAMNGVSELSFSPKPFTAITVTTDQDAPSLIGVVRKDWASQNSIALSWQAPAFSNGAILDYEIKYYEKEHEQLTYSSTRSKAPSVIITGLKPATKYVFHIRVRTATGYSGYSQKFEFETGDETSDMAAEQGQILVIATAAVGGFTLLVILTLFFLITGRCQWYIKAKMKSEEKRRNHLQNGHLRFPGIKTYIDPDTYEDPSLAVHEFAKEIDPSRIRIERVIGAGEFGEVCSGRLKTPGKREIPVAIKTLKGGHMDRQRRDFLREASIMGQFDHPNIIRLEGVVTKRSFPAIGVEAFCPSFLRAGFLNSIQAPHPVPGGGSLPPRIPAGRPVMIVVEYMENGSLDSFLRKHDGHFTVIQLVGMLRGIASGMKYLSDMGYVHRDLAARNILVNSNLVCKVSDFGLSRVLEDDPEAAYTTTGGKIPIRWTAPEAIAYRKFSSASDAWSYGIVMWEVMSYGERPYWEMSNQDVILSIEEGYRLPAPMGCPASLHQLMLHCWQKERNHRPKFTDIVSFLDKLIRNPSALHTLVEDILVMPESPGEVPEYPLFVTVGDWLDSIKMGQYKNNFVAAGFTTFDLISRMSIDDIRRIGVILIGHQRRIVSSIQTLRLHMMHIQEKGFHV

[2] = test system: UACC-62; test: NCI screening panel (SRB); assay type: cell-based; conditions: Homo sapiens; UACC-62 (Melanoma), 48 h
[3] = target: T1, EPHA6; test: Binding to EPHA (kinase competition binding, qPCR); design: T7 phage fusion (kinase-tagged phage) or DNA tag for qPCR; made in house; host or cells: E. coli BL21-derived host (T7 phage) or HEK-293; conditions: 300 nM, read-out: % Control @ 300 nM
Method: The lysates were centrifuged and filtered to remove cell debris. […] All reactions were performed in polystyrene 96-well plates in a final volume of 0.135 ml.

[4] = target: EGFR (L747-S752del, P753S) (Homo sapiens, UniProt P00533, DEL747-752/P753S); test: Kinase assays, selectivity panel (qPCR); conditions: read-out: % Control @ 300 nM
[5] = target: CYP 3A4 (Homo sapiens, UniProt P08684); test: CYP450 inhibition; assay type: in vitro ADME; conditions: Testosterone
Method: Prepare stock solutions of the test compound and positive control compounds described in Table 8 in DMSO at 0, 0.2, 1, 2, 10, 50, 200, 2000 and 10000 μM. Transfer 1 μL of the stock solutions to the Incubation Plate. The final concentrations of test compound or positive control compound are 0, 0.001, 0.005, 0.01, 0.05, 0.25, 1, 10 and 50 μM. All experiments are performed in duplicate.

[6] = test system: P-gp; test: in vitro; conditions: human, Caco-2, pH 7.4
Method: At this stage of growth, cell monolayers were fully polarized and differentiated.
The permeability assay buffer was Hanks Balanced Salt Solution containing 10 mM HEPES and 15 mM glucose at a pH of 7.4. The dosing buffer contained 5 μM metoprolol (positive control), 5 μM atenolol (negative control) and 100 μM lucifer yellow. The buffer in the receiver chamber also contained 1% bovine serum albumin (BSA). The dosing solution concentration was 5 μM in the assay buffer. Digoxin (20 μM) was used as Pgp substrate control.
The known Pgp inhibitor was co-dosed at 50 μM with compound at 5 μM.
Cell monolayers were dosed on the apical side (A-to-B) or basolateral side (B-to-A) and incubated at 37° C. in a shaker (65 rpm). Samples were taken from the donor and receiver chambers at 120 minutes. Each determination was performed in duplicate.
Narrow-window mass extraction LC/MS analysis was performed for all samples from this study using a Waters Xevo quadrupole time-of-flight (QTof) mass spectrometer, to determine relative peak areas of parent compound. The percent of transported drug was calculated based on these peak areas, relative to the initial, dosing concentration.

EGFR (L747-S752del, P753S), sequence (P00533 with tags, fused parts or gaps DEL747-752/P753S): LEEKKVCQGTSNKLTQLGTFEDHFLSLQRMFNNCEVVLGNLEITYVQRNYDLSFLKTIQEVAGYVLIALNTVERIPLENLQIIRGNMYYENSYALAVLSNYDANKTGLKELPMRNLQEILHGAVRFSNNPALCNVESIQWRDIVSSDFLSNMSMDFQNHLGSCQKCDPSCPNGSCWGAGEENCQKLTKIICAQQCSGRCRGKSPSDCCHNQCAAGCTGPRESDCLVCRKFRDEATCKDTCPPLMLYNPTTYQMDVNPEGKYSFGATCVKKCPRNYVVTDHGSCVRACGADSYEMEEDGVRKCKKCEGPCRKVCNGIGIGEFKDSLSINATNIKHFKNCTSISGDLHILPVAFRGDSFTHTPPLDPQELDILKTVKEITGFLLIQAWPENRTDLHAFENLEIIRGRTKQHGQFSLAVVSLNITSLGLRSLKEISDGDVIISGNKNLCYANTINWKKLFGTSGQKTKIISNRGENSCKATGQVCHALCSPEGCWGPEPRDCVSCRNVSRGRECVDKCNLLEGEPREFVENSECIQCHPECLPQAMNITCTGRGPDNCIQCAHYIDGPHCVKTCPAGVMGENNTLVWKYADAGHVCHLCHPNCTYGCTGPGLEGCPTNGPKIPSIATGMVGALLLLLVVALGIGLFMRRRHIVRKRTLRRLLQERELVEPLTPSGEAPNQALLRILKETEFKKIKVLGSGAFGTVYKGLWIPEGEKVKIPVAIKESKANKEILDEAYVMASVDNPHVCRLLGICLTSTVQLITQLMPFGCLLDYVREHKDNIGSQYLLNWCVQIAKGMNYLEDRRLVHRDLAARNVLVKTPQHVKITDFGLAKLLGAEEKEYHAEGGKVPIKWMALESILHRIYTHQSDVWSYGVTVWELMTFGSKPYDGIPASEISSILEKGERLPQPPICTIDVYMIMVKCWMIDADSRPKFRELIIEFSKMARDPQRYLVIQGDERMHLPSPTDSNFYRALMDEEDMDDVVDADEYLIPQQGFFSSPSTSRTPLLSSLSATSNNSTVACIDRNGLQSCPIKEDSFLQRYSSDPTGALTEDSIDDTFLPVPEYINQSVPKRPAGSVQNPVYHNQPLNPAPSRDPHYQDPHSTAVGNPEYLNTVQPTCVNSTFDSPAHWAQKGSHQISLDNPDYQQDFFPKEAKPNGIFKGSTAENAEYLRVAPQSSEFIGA
CYP 3A4, sequence (P08684 whole entry): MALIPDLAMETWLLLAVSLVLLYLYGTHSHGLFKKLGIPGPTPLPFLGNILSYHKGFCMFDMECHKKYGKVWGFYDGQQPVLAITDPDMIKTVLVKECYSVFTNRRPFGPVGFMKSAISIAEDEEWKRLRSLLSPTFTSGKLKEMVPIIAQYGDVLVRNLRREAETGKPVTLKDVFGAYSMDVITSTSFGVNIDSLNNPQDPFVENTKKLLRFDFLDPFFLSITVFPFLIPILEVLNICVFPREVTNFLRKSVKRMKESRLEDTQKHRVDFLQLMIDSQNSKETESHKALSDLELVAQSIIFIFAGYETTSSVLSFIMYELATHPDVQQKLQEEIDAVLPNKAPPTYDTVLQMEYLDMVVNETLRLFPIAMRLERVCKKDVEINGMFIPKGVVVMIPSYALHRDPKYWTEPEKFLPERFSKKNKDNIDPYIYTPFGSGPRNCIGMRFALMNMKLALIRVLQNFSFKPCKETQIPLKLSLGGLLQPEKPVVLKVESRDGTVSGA

Row | Structure (SMILES) | remaining activity at 0.3 µM [1] | GI50 [2] | LC50 [2] | remaining binding at 0.3 µM [3] | remaining activity at 0.3 µM [4] | pIC50 [5] | efflux ratio at 120 min, 5 µM [6]
1 | CN(C)C/C=C/C(=O)Nc1cc2c(Nc3ccc(F)c(Cl)c3F)ncnc2cc1OCCOC(F)F.O=C(O)/C=C\C(=O)O.O=C(O)/C=C\C(=O)O [Example I-9-MA, (E)-N-[4-(3-chloro-2,4-difluoro-anilino)-7-[2-(difluoromethoxy)ethoxy]quinazolin-6-yl]-4-(dimethylamino)but-2-enamide di-maleic acid salt] | 3.5% | 1.49 µM | 9.95 µM | 3.5% | 2.8% |  | 
2 | O=C(/C=C/CN1CCCCC1)Nc1cc2c(Nc3ccc(F)c(Cl)c3F)ncnc2cc1OCCOC(F)F.O=C(O)/C=C\C(=O)O.O=C(O)/C=C\C(=O)O [Example I-10-MA, (E)-N-[4-(3-chloro-2,4-difluoro-anilino)-7-[2-(difluoromethoxy)ethoxy]quinazolin-6-yl]-4-(1-piperidyl)but-2-enamide di-maleic acid salt] | 3.9% | 1.79 µM | 20.5 µM | 3.9% | 2.5% |  | 
3 | CN(C)C/C=C/C(=O)Nc1cc2c(Nc3cccc(Cl)c3F)ncnc2cc1OCCOC(F)F.O=C(O)/C=C\C(=O)O [Example I-5-MA, (E)-N-[4-(3-chloro-2-fluoro-anilino)-7-[2-(difluoromethoxy)ethoxy]quinazolin-6-yl]-4-(dimethylamino)but-2-enamide dimaleic acid salt] |  |  |  |  |  | 4.38 | 0.48
